Data set [1] can be described thus: on-resin all-hydrocarbon stapling by ring-closing metathesis of S5/S5 (i,i+4) or R8/S5 (i,i+7), Grubbs first-generation catalyst (0.45 mmol per 0.15 mmol resin, 3 equiv), then TFA/TIPS/phenol/H2O cleavage and RP-HPLC. The settings on record: the molecule shown is the open-chain precursor, 25.0 °C, 4.0 h, 36 steps.
A further data set has as its system α-chymotrypsin. Put plainly: Protease stability experiment (α-chymotrypsin-mediated degradation). Type of data set: in vitro ADME. Particulars: for half-life at 25 µM: α-chymotrypsin 0.5 ng/μl in PBS pH 7.4 with 2 mM CaCl2, 50 μl peptide 1 mM in DMSO + 1,950 μl enzyme, 37°C, 0, 1, 2, 4, 8, 12 h, residual peptide by HPLC, read-out: t1/2 (h), hydrolysis enzyme degradation half-life (converted). Here is the method:
Protease Stability Experiment
Fifty microliters peptides in dimethyl sulfoxide (DMSO) (1 mM) and 1,950 μl α-chymotrypsin in phosphate-buffered saline (PBS) (0.5 ng/μl, pH 7.4, containing 2 mM CaCl2) were mixed and incubated at 37°C. After 0, 1, 2, 4, 8, and 12 h, the percent residual peptide was monitored by HPLC.

For data set [2], the system named is human lung tumor cell line A549. Type of data set: cell-based. Particulars: CCK-8, 96 h treatment, 0.39-50 μM, OD 450 nm; read-out: IC50 (μM) A549. An excerpt:
(§1) Cell Culture and Cell Viability Assay
(§2) The human prostate cancer cell line C4-2B was kindly provided and authenticated by Dr. Leland Chung (Cedars-Sinai Medical Center, Los Angeles, CA, USA). The human lung tumor cell line A549, the human breast tumor cell line MCF-7, and glioma cell line U87 were obtained from Shanghai Cellular Institute of Chinese Academy of Sciences (Shanghai, China). All cell lines were maintained in Dulbecco's modified Eagle's medium (DMEM) involving 10% fetal bovine serum (FBS) and 1% penicillin–streptomycin (PS) (complete DMEM) and was cultured at 37°C with humidified atmosphere of 5% CO2. Cell viability was examined using the cell counting kit (CCK-8) in accordance with manufacturer's protocol. Cells were seeded in 96-well culture plates at a density of 3 ×10^3 cells/well at 37°C for 24 h. Next day, cells were treated without or with various concentrations (0.39, 0.78, 1.56, 3.125, 6.25, 12.5, 25, and 50 μM) of peptides for 96 h after which 10 μl of CCK-8 reagent was added to each well and incubated for further 2 h at 37°C. The optical density (OD) was then measured at a wavelength of 450 nm on a Cell Imaging Multi-Mode Reader (BioTek, Vermont, USA), and the average OD values for each sample were analyzed using Image-J software (NIH, Bethesda, MD, USA). The half maximal inhibitory concentration (IC50) was calculated by GraphPad Prism v7.0 software (San Diego, CA, USA).

Data set [3] relates to human prostate cancer cell line C4-2B. Type of data set: cell-based. The settings on record: CCK-8, 96 h treatment, 0.39-50 μM, OD 450 nm; read-out: IC50 (μM) C4-2B.
Text: as §1, §2

The subject of another data set is glioma cell line U87. Type of data set: cell-based. The settings on record: CCK-8, 96 h treatment, 0.39-50 μM, OD 450 nm; read-out: IC50 (μM) U87.
Text: as §1, §2

Data set [4] concerns human breast tumor cell line MCF-7. Type of data set: cell-based. Particulars: CCK-8, 96 h treatment, 0.39-50 μM, OD 450 nm; read-out: IC50 (μM) MCF-7.
Text: as §1, §2

The mark [5] stands for this setting: 33-membered ring, 1,2-dichloroethane.
Setting [6] is: 21-membered ring, 1,2-dichloroethane.

Bridge positions count the residues as written; N and C are the ends. Square brackets hold non-standard residues; d marks the D form. Peptide text beside a SMILES is read from it. R8 = C=CCCCCCC[C@@](C)(N)C(=O)O; S5 = C=CCCC[C@](C)(N)C(=O)O

For `C=CCCCCCC[C@@](C)(NC(=O)CNC(C)=O)C(=O)N[C@@H](Cc1ccccc1)C(=O)N[C@@H](C)C(=O)N[C@H](C(=O)N[C@H](C(=O)N[C@@H](CCCCNC(=O)OC(C)(C)C)C(=O)N[C@@H](CCCCNC(=O)OC(C)(C)C)C(=O)N[C@@](C)(CCCC=C)C(=O)N[C@@H](C)C(=O)N[C@@H](COC(C)(C)C)C(=O)N[C@H](C(=O)N[C@H](C(=O)N[C@@H](CCCCNC(=O)OC(C)(C)C)C(=O)NCC(=O)N[C@@H](CC(C)C)C(N)=O)[C@@H](C)CC)C(C)C)[C@@H](C)CC)C(C)C`, the ring closure, overall yield in data set [1] (setting [5]) was determined as 63 % yield.
Same read-out and setting: then `C=CCCCCCC[C@@](C)(NC(=O)[C@@H](NC(=O)[C@H](C)NC(=O)[C@H](Cc1ccccc1)NC(=O)[C@H](CC(C)C)NC(=O)CNC(C)=O)C(C)C)C(=O)N[C@@H](CCCCNC(=O)OC(C)(C)C)C(=O)N[C@@H](CCCCNC(=O)OC(C)(C)C)C(=O)N[C@H](C(=O)N[C@@H](C)C(=O)N[C@@H](COC(C)(C)C)C(=O)N[C@H](C(=O)N[C@@](C)(CCCC=C)C(=O)N[C@@H](CCCCNC(=O)OC(C)(C)C)C(=O)NCC(=O)N[C@@H](CC(C)C)C(N)=O)C(C)C)C(C)C`, with 62 % yield.
Turning to `C=CCCC[C@](C)(NC(=O)CNC(C)=O)C(=O)N[C@@H](Cc1ccccc1)C(=O)N[C@@H](C)C(=O)N[C@H](C(=O)N[C@@](C)(CCCC=C)C(=O)N[C@@H](CCCCNC(=O)OC(C)(C)C)C(=O)N[C@@H](CCCCNC(=O)OC(C)(C)C)C(=O)N[C@H](C(=O)N[C@@H](C)C(=O)N[C@@H](COC(C)(C)C)C(=O)N[C@H](C(=O)N[C@H](C(=O)N[C@@H](CCCCNC(=O)OC(C)(C)C)C(=O)NCC(=O)N[C@@H](CC(C)C)C(N)=O)[C@@H](C)CC)C(C)C)C(C)C)C(C)C`, the ring closure, overall yield in data set [1] (setting [6]) is 63 % yield.
Regarding `C=CCCC[C@](C)(NC(=O)[C@@H](NC(=O)[C@H](C)NC(=O)[C@H](Cc1ccccc1)NC(=O)[C@H](CC(C)C)NC(=O)CNC(C)=O)C(C)C)C(=O)N[C@@H](CCCCNC(=O)OC(C)(C)C)C(=O)N[C@@H](CCCCNC(=O)OC(C)(C)C)C(=O)N[C@H](C(=O)N[C@@](C)(CCCC=C)C(=O)N[C@@H](COC(C)(C)C)C(=O)N[C@H](C(=O)N[C@H](C(=O)N[C@@H](CCCCNC(=O)OC(C)(C)C)C(=O)NCC(=O)N[C@@H](CC(C)C)C(N)=O)[C@@H](C)CC)C(C)C)C(C)C`, the ring closure, overall yield in data set [1] (setting [6]) was found to be 71 % yield.
Regarding `C=CCCC[C@](C)(NC(=O)[C@H](C)NC(=O)[C@@H](NC(=O)[C@H](CCCCNC(=O)OC(C)(C)C)NC(=O)[C@H](CCCCNC(=O)OC(C)(C)C)NC(=O)[C@@H](NC(=O)[C@@H](NC(=O)[C@H](C)NC(=O)[C@H](Cc1ccccc1)NC(=O)[C@H](CC(C)C)NC(=O)CNC(C)=O)C(C)C)[C@@H](C)CC)C(C)C)C(=O)N[C@H](C(=O)N[C@H](C(=O)N[C@@H](CCCCNC(=O)OC(C)(C)C)C(=O)N[C@@](C)(CCCC=C)C(=O)N[C@@H](CC(C)C)C(N)=O)[C@@H](C)CC)C(C)C`, in data set [1] (setting [6]), the ring closure, overall yield amounted to 62 % yield.
As to `C=CCCC[C@](C)(NC(=O)[C@H](C)NC(=O)[C@H](Cc1ccccc1)NC(=O)[C@H](CC(C)C)NC(=O)CNC(C)=O)C(=O)N[C@H](C(=O)N[C@@H](CCCCNC(=O)OC(C)(C)C)C(=O)N[C@@H](CCCCNC(=O)OC(C)(C)C)C(=O)N[C@@](C)(CCCC=C)C(=O)N[C@@H](C)C(=O)N[C@@H](COC(C)(C)C)C(=O)N[C@H](C(=O)N[C@H](C(=O)N[C@@H](CCCCNC(=O)OC(C)(C)C)C(=O)NCC(=O)N[C@@H](CC(C)C)C(N)=O)[C@@H](C)CC)C(C)C)[C@@H](C)CC`, the ring closure, overall yield in data set [1] (setting [6]) came out at 62 % yield.
With `C=CCCC[C@](C)(NC(=O)[C@H](CCCCNC(=O)OC(C)(C)C)NC(=O)[C@H](CCCCNC(=O)OC(C)(C)C)NC(=O)[C@@H](NC(=O)[C@@H](NC(=O)[C@H](C)NC(=O)[C@H](Cc1ccccc1)NC(=O)[C@H](CC(C)C)NC(=O)CNC(C)=O)C(C)C)[C@@H](C)CC)C(=O)N[C@@H](C)C(=O)N[C@@H](COC(C)(C)C)C(=O)N[C@H](C(=O)N[C@@](C)(CCCC=C)C(=O)N[C@@H](CCCCNC(=O)OC(C)(C)C)C(=O)NCC(=O)N[C@@H](CC(C)C)C(N)=O)C(C)C`, the ring closure, overall yield in data set [1] (setting [6]) was 66 % yield.
Consider `CC[C@H](C)[C@@H]1NC(=O)[C@H](C(C)C)NC(=O)[C@H](C)NC(=O)[C@H](Cc2ccccc2)NC(=O)[C@](C)(NC(=O)CNC(C)=O)CCCCCCC=CCCC[C@@](C)(C(=O)N[C@@H](C)C(=O)N[C@@H](CO)C(=O)N[C@H](C(=O)N[C@H](C(=O)N[C@@H](CCCCN)C(=O)NCC(=O)N[C@@H](CC(C)C)C(N)=O)[C@@H](C)CC)C(C)C)NC(=O)[C@H](CCCCN)NC(=O)[C@H](CCCCN)NC1=O` [A4K14-citropin1.1-6] (Ac-G[R8]FAVIKK[S5]ASVIKGL-NH2; staple 2-9), for which, in the data set on α-chymotrypsin, the half-life at 25 µM is 0.57 h. Besides, the IC50 in data set [2] worked out at 30.2 µM; in data set [3], 35.8 µM; in the data set with glioma cell line U87, 34.5 µM; in data set [4] it was 23.8 µM.
The corresponding values for `CC(=O)NCC(=O)N[C@@H](CC(C)C)C(=O)N[C@@H](Cc1ccccc1)C(=O)N[C@@H](C)C(=O)N[C@H](C(=O)N[C@]1(C)CCCCCCC=CCCC[C@@](C)(C(=O)N[C@@H](CCCCN)C(=O)NCC(=O)N[C@@H](CC(C)C)C(N)=O)NC(=O)[C@H](C(C)C)NC(=O)[C@H](CO)NC(=O)[C@H](C)NC(=O)[C@H](C(C)C)NC(=O)[C@H](CCCCN)NC(=O)[C@H](CCCCN)NC1=O)C(C)C` [A4K14-citropin1.1-7] (Ac-GLFAV[R8]KKVASV[S5]KGL-NH2; staple 6-13) are 0.58 h, 16.4 µM, 10.2 µM, 14.7 µM and 12.1 µM.
As to “Ac-GLFAVIKKVASVIKGL-NH2 [A4K14-citropin1.1, reference compound]”, the “peptide remaining intact after 12 h of protease exposure” value in the data set with α-chymotrypsin (α-chymotrypsin 0.5 ng/μl in PBS pH 7.4 with 2 mM CaCl2, 37°C, 12 h, HPLC) is on record as “degraded completely”. Further, in the data set with α-chymotrypsin, the half-life at 25 µM is 0.63 h. Moreover, the IC50 in data set [2] is 15 µM; in data set [3] it was 29.1 µM; in the data set on glioma cell line U87, 14.8 µM; in data set [4], 14.2 µM.

Broadly, the IC50 is the point on the concentration scale where inhibition reaches its midpoint.
